Results taken from a melting point compilation (Tetko et al.; mined from patent text by program, amines drawn as free bases though some values may be those of a salt).

| SMILES | melting point [°C] |
| --- | --- |
| Cc1cc(Br)cnc1CCCCNc1ncc(Cc2ccc(CO)nc2)c(=O)[nH]1 | 61 to 70 |
| O=C(O)Cc1c(C(=O)O)c2cc(Oc3ccc(C(F)(F)F)cc3)ccc2n1-c1ccccc1 | 255 to 257 |
| CCOC(=O)C(C)Oc1ccc(Oc2nc3ccc(Cl)cc3s2)cc1 (stereo not given) | 49 |
| COc1ccc(OCCCCCN2CCN(Sc3ccc[nH]3)CC2)cc1 | 83 to 85 |
| CCOC(=O)C1(C(=O)OCC)CCC2(c3cc(OC)c(OC)cc3CCN2C(C)=O)C(C2c3cc(OC)c(OC)cc3CCN2CC)C1 (stereo not given) | 142 to 144 |
| Cc1c(C)c2c(c(C)c1Nc1ccccc1)CC(C)(C)O2 | 148 to 150 |
| CS(=O)(=O)c1ccc(-c2cnn(-c3ccc(F)cc3)c(=O)c2COc2cccc(F)c2)cc1 | 142 to 144 |
| CCCCCCCC1OC1CO (stereo not given) | 50 to 51 |
| O=Cc1cccc(OCC(O)CN2C(=O)c3ccccc3C2=O)c1 (stereo not given) | 122 to 126 |
| COCCOc1ccc(/C=C/C(=O)NS(=O)(=O)c2ccc(C(F)(F)F)cc2)c(Oc2ncc(C(F)(F)F)cc2Cl)c1 | 186 |
| COc1cccc(Cn2c(C(=O)O)c(-c3ccc(C(=O)NC4CC4)cc3)c3ccccc32)c1 | 237 |
| CCOP(=O)(Cc1ccc(NC(=O)CCc2sc(N)nc2-c2ccc(Cl)cc2)cc1)OCC | 177 to 178 |
| Clc1ccc2c(c1)c(-c1ccccc1)c1n2CCNC1 | 163 to 164 |
| COc1ccc2ccc(C(=O)NC(C)C)c(OC(C)C)c2c1 | 62 to 64 |
| O=C1Nc2cccnc2N(C(=O)NCCN2CCC(CCCN3CCCCC3)CC2)c2cc(Cl)ccc21 | 176 to 177 |
| O=c1[nH]ncc2[nH]c(-c3ccc(OC(F)F)c(OC4CC4)c3)c(CC3CC3)c12 | 204 to 206 |
| O=C1CSC(C(=O)Nc2ccc(Cl)cc2)Cc2ccc(Cl)cc21 (stereo not given) | 235 to 236 |
| CSc1c(CC(=O)O)ccc2c3ccccc3n(Cc3ccccc3)c12 | 182 to 183 |
| Cc1cc(C)n2ncc(F)c2n1 | 129 to 130 |
| Cc1ccc(-c2nc(Cl)nc(Cl)c2-c2ccccc2)cc1 | 130 to 132 |
| CC(C)c1nn(-c2nc3ccccc3s2)c(-c2ccc(F)cc2)c1C=CC1CC(O)CC(=O)O1 (stereo not given) | 168 to 170 |
| COC(=O)c1ccc(CC(=O)c2ccc3c(c2)C(C)(C)CCC3(C)C)cc1 | 103 to 104 |
| CCCCNS(=O)(=O)CC(O)C(O)C(CC1CCCCC1)NC(=O)[C@H](CC(C)C)NC(=O)C(Cc1ccccc1)CS(=O)(=O)C(C)(C)C (stereo not given in full) | 87 to 101 |
| O=C(NCc1ccncc1)N(c1ccccc1)c1ccccc1 | 174 |
| CCOC(=O)C1=C(N)NC(N)=C(C(=O)OCC)C1c1cc([N+](=O)[O-])ccc1Cl | 130 |

| SMILES | melting point [°C] |
| --- | --- |
| O=C1CCC(c2ccccc2)(c2ccccc2)C2CN(C(Cc3ccccc3)=NCc3ccc(F)cc3)CC12 (stereo not given) | 180 |
| CC(=O)N1CCCCc2ccc(C(=O)CCC3CCN(Cc4ccccc4)CC3)cc21 | 115 to 116 |
| COc1ccccc1C(=O)C=CC(=O)O | 146 to 148 |
| Clc1ccc2nccc(Cl)c2c1 | 101 to 104 |
| O=C(CN1CCN(c2ccc(F)cc2)CC1)CN1CCN(c2ccc(F)cc2)CC1 | 106 to 107 |
| N#CNc1cc(F)ccc1N1CCOCC1 | 168 to 170 |
| Nc1nc2ccccc2c2c1ncn2CCCCNC(=O)c1ccccc1Oc1ccccc1 | 93 to 94 |
| O=c1oc2c(O)cccc2c(OCCN2CCOCC2)c1-c1ccccc1 | 190 to 191 |
| COc1cc2c(cc1OC)CN(Cc1ccc(OC(=O)N(C)C)c(OC)c1)CC2 | 126 to 128 |
| CNc1nc(-c2cccc(NC(=O)c3ccc(S(C)(=O)=O)cc3)c2)c2cc(OC)c(OC)cc2n1 | 277 to 279 |
| NCc1c(-c2ccc(O)cc2)nnn1-c1ccc(C(F)(F)F)cc1Cl | 96.5 to 98.9 |
| Oc1ccccc1Cc1cccc2[nH]ccc12 | 139 |
| O=c1c2c(F)cccc2nc(C(S)c2ncnc3[nH]cnc23)n1-c1ccccc1Cl (stereo not given) | 223 to 224 |
| Cc1ncn(-c2cc(F)ccc2CNC(=O)c2nc3n(c(=O)c2OCc2ccccc2)CCOC3(C)C)n1 | 203 |
| O=C(NN1CCCNC1=O)OCc1ccccc1 | 161 to 163 |
| CCOC(=O)c1cnc2c(cnn2CC)c1O | 85 to 87 |
| COC(=O)c1ccc(/C=C(\C)c2ccc3c(c2)C(C)(C)CCN3C(C)=O)cc1 | 141 to 142 |
| CN1CCN(c2nc(-c3ccccc3)c(-c3ccnc(S(C)=O)n3)s2)CC1 (stereo not given) | 166 to 169 |
| CCNc1nc(C)c(-c2ccnc(Nc3cccc(S(=O)(=O)NCc4ccccc4)c3)n2)s1 | 204 to 205 |
| CC1OC(Cn2cncn2)(c2ccc(F)cc2F)C1(C)C (stereo not given) | 112 to 113 |
| CCOC(=O)C(C)Oc1ncn(-c2cccc(Cl)c2)n1 (stereo not given) | 70 to 72 |
| CC(C)C(=O)NCc1ccc(-c2csc(N=C(N)N)n2)o1 | 211 to 213 |
| Cc1cc2nccn2nc1OCCCS(=O)(=O)N1CCN(C)CC1 | 118 to 120 |
| Cc1c(C#N)c(N)n(-c2ccccc2Br)c1C | 233 to 235 |
| COc1cc(Nc2c(C#N)cnc3cc(Br)ccc23)c(Cl)cc1F | 200 to 202 |

| SMILES | melting point [°C] |
| --- | --- |
| COc1cc(OC)c(C(=O)CCCCCl)cc1NS(=O)(=O)c1ccc(C(F)(F)F)cc1 | 150 to 153 |
| NC(=O)Nc1cccc2c1C(=O)c1c-2n[nH]c1-c1csc(Cl)c1 | > 300 |
| O=C(O)COc1ccc(SSc2ccc(OCC(=O)O)c(Br)c2)cc1Br | 146 to 150 |
| NC(Cc1cccc(O)c1)c1ccccc1 (stereo not given) | 179 to 181 |
| CCOC(=O)c1cc(Cl)cnc1NC(=O)Cc1ccccc1 | 114 |
| CC1(C)OC[C@H](CON2C(=O)c3ccccc3C2=O)O1 | 100 to 102 |
| OCCc1ncn(C(c2ccccc2)(c2ccccc2)c2ccccc2)n1 | 127 to 129 |
| Cc1cccc(NC(=O)OCCS(C)(=O)=O)c1CNc1cccn2c(C)c(C)nc12 | 161 to 162 |
| O=C(Nc1ccccc1)O[C@@H]1CN2CCC1CC2 | 129 to 130 |
| CCOC(=O)C=CC=Cc1ccc(F)c([N+](=O)[O-])c1 | 106 to 107 |
| C[C@@H]([C@H](O)c1ccc(O)cc1)N1CCC(O)(Cc2ccccc2)CC1 (relative stereo) | 173 to 174 |
| Cc1c(-c2ccc(OCc3ccccc3)c(F)c2)[nH]c2ccc(OCc3ccccc3)cc12 | 135 to 137 |
| CON(c1ccc([N+](=O)[O-])cc1C#N)S(=O)(=O)c1ccc(C(F)(F)F)cc1 | 134 to 135 |
| CCOc1nc(N)nc(C2CC2)n1 | 103 to 106 |
| CCC1(c2cccc([N+](=O)[O-])c2)C(=O)NC(=O)NC1=O | 283 to 284 |
| COC(=O)C(C)(C)OCc1cc2cc(C(F)(F)F)ccc2n1S(=O)(=O)c1ccc2c(c1)OCCN2C | 96 to 98 |
| FC(F)Oc1cccc2cnsc12 | 58 to 59 |
| Cc1nc2c(N)nc3ccncc3c2n1C | 330 to 335 |
| COc1ccc([N+](=O)[O-])c(N(C)C(=O)OC(C)(C)C)c1 | 122 to 124 |
| CC1=C(C(=O)OCC(Cl)(Cl)Cl)N2C(=O)C(NC(=O)Cc3ccccc3)C2SC1 (stereo not given) | 162 |
| Cc1c(-n2ccnc2)n(Cc2ccc(C(=O)O)cc2)c2ccccc12 | 221 to 225 |
| CC(O)CSC(=S)Nc1ccccn1 (stereo not given) | 78 |
| Cc1cccc(-c2cc3cnc(N)nc3nc2NC(=O)NC(C)(C)C)c1C | 326 to 330 |
| CCNC(=O)c1c(NC(=O)c2cc(C(F)(F)F)nn2-c2ncccc2Cl)c(C)cc2nc(C)ccc12 | > 230 |
| O=c1cc[nH]c2cn[nH]c12 | > 320 |

| SMILES | melting point [°C] |
| --- | --- |
| CCN1CCCOc2cc(Nc3ncc(Cl)c(N[C@@H]4CCCC[C@H]4NS(C)(=O)=O)n3)ccc21 | 108 to 110 |
| OCCN(Cc1ccc2ccccc2c1)C1(c2nccc3sccc23)CCNCC1 | 53 to 55 |
| N#Cc1oc(-c2ccc(Cl)cc2)c2ccccc12 | 128 to 130 |
| Nc1c(C(=O)c2cccc(S(N)(=O)=O)c2)[nH]c2cc(Cl)ccc12 | 125 to 127 |
| CC1(Br)C(Br)=C(Br)C(Br)=C1Br | 60 to 61 |
| Cc1cc(OC(F)F)ccc1NC(=O)c1cccc([N+](=O)[O-])c1C(=O)NC(C)C | 148 to 149 |
| CC(=O)N1CCc2cc(CC(C)Br)cc(C#N)c21 (stereo not given) | 115 to 117 |
| N#Cc1ccc2oc3c(c(=O)c2c1)CCCC3 | 198 to 200 |
| CC(=O)CCC1CCC2C(C=CC3=CCCc4c3n2c2ccncc42)C1 (stereo not given) | 102 |
| CN1CC(=O)Nc2ccc(C(F)(F)F)cc2C1=O | 203 to 206 |
| Cc1c(/C=C/C(=O)O)cnn1C | 217 to 219 |
| Nc1ccc(-c2noc(-c3cnn4c(C(F)(F)F)cc(-c5ccc(C(F)(F)F)c(Cl)c5)nc34)n2)cn1 | 234 |
| CCc1ncnc(N[C@H]2CC[C@@H](C=O)CC2)c1Cl | 96 to 97 |
| C[Si](C)(C)c1ccc(NC(=O)CCCC=C(F)F)cc1 | 50 to 51 |
| CN(CCN1CCOCC1)C(=O)c1ccc(COc2cccc3c2CN(C2CCC(=O)NC2=O)C3=O)cc1 (stereo not given) | 120 to 122 |
| COc1cc([N+](=O)[O-])c(C=O)cc1OCc1ccccc1 | 131 to 132 |
| O=C(c1ccccc1)c1nsc2nc3ccccc3n12 | 190 to 191 |
| c1ccc(C(c2ccccc2)N2CCc3ccccc32)cc1 | 62 to 63.5 |
| O=C(N[C@H](Cc1ccc(C(F)(F)F)cc1)[C@@H](O)c1ccc(F)cc1)c1ccc(CO)c2ccccc12 (racemic) | 202 to 203 |
| CCCC(CCC)C(=O)N[C@H](C(=O)N[C@H]1CCO[C@@H]1OC)C(C)C | 150 to 156 |
| CCOc1ccc(-c2ccc3c(c2)C=C(C(=O)O)CCN3S(C)(=O)=O)cc1F | 237 to 239 |
| COc1cc(Cl)c(N)c(C(=O)O)c1OC | 140 to 142 |
| CCOC(=O)c1ncn2c1CN(C)C(=O)c1c(C)cccc1-2 | 146 to 147 |
| CCn1cc(C(=O)NCCc2ccccc2)c(=O)c2cnc(N3CCCC3)nc21 | 178 to 180 |
| Nc1cc(F)ccc1C(=O)Nc1ccccc1 | 120 to 122 |
